From publication PMC12383012 (Antioxidants, 2025)
Entries after “also recorded” stand apart in the source; their conditions may differ.

Tests used:
[1] = Free-radical-scavenging assay (DPPH method); details: for % AA (radical-scavenging activity): compound concentration 100 μM; for EC50: read-out: AA EC50
Procedure: The percentage of radical-scavenging activity (%AA, antioxidant capacity) of the RIV hybrids was first determined by the 2,2-diphenyl-1-picrylhydrazyl (DPPH) method using a compound concentration of 100 μM. […] Each calibration point was kept 30 min in darkness, and afterwards, the absorbance was measured at 517 nm. The corresponding antioxidant activity (%AA) was calculated using the equation %AA=ADPPH−Aligand/ADPPH×100. From the plot of %AA versus ligand concentration, EC50 was determined. Three independent experiments were performed, and a statistical analysis was conducted by a one-way analysis of variance (ANOVA) with the significance threshold set at p < 0.05.
The RIV hybrids were screened for their radical-scavenging activity by using the DPPH method. These assays were conducted in two stages: first, preliminary analyses were performed for all the compounds to evaluate the percentage of radical-scavenging activity by using a compound concentration of 100 μM. Afterwards, the compounds showing more than 50% antioxidant activity (AA), under those conditions, were further assessed to evaluate the respective EC50 values.

[2] = target: T1, electric eel acetylcholinesterase (eeAChE) (Electrophorus electricus, UniProt O42275); experiment: Acetylcholinesterase inhibition (adapted Ellman's method); format: biochemical; details: read-out: AChE Inhib IC50
T1 construct: purchased
Procedure: (§1) The enzyme inhibition of electric eel acetylcholinesterase (eeAChE) and equine butyrylcholinesterase (eqBChE) was performed according to an adaptation of Elmman’s method. Stock solutions of 1 mg of each compound in 1 mL MeOH were prepared, and adequate dilutions were further made for each ligand. A control measurement (5 replicates without a ligand) and a calibration curve of 5 points with 3 replicates per point were conducted. Each solution included fixed volumes of 4-(2-hydroxyethyl)-1-piperazine-ethanesulfonic acid (HEPES) and cholinesterase (eeAChE or eqBChE), with different volumes of ligand solution. A blank solution containing HEPES and MeOH was also prepared at the same time. After 15 min of reaction, […] (AChI) or butyrylcholine iodide (BChI) and 5,5’-dithiobis-(2-nitrobenzoic acid) (DTNB) were added to both solutions contained in spectrophotometer cuvettes, and the absorbance at 405 nm was recorded for 5 min (time interval = 1 s, slid width = 1 nm). The slope for each calibration point (absorbance versus reaction time) was determined, and the percent inhibition was calculated by using the equation: %Inhibition=100−(vi/v0×100). where vi is the reaction rate (slope) for each point of the calibration with the ligand, and v0 is the initial reaction rate (slope) for the control point (without ligand). Finally, the five-point linear regression (10–50 µL of ligand solution) corresponding to the percentage of enzyme inhibition vs. the compound concentration allowed for the determination of the half maximal inhibitory concentration (IC50, µM) (compound concentration for which enzyme activity is reduced to half). Experiments were performed twice for each ligand. Statistical analysis was performed by a one-way analysis of variance (ANOVA) with a significance threshold set at p < 0.05.

[3] = target: T2, equine butyrylcholinesterase (eqBChE) (Equus caballus, UniProt P81908); experiment: Butyrylcholinesterase inhibition (adapted Ellman's method); format: biochemical; details: for SI (selectivity index): SI = IC50 (AChE)/IC50 (BChE); for IC50: eqBChE, read-out: BChE Inhib IC50
T2 construct: purchased
Procedure: as §1

Aβ1–42 = target: T3, Aβ1–42 (Homo sapiens, UniProt P05067); experiment: Inhibition of Aβ1–42 self-aggregation (ThT fluorescence); format: biochemical; details: read-out: % Aβ42 Self-Agg Inhib; for inhibition at 20 µM: 24 h
T3 construct: the Aβ1–42 peptide (Shanghai Royobiotech Co., Ltd., Shanghai, China); purchased Shanghai Royobiotech Co., Ltd
Procedure: Firstly, the Aβ1–42 peptide (Shanghai Royobiotech Co., Ltd., Shanghai, China) was treated with 1,1,1,3,3,3-hexafluoropropan-2-ol (HFIP) and then dissolved in a CH3CN/Na2CO3 (300 μM)/NaOH (250 μM) (48.3:48.3:4.3, v/v/v) mixture in order to obtain a stable stock solution (500 μM).
Solutions of 1 mg of the assayed compounds in 2 mL of 1:1 (v/v) DMSO/MeOH (0.5 mg/mL) medium were prepared and then properly diluted with phosphate buffer (0.215 M, pH 8.0) to obtain a 120 μM final concentration. The Aβ1–42 self-aggregation inhibition assays were made based on a reported method, involving the fluorescence emission of thioflavin T (ThT). So, Aβ1–42 (40 μM) was incubated at 37 °C for 24 h in phosphate buffer and in the presence or absence of each ligand (40 μM for all compounds but 4AY4 and 4CY1, for which 20 μM was used). Then, […] 5 μM ThT in 50 mM glycine-NaOH (pH 8.5) buffer were added to each sample before transferring the samples to a 96-well microplate. Blank samples were also prepared without Aβ1–42. The ThT fluorescence was measured (446 and 485 nm excitation and emission wavelengths, respectively), and the percent of self-aggregation inhibition was determined by the equation:I% = 100 − (IFi/IF0 × 100) where IFi and IF0 are the fluorescence intensities, in the presence and the absence of the assayed compound, subtracted from the fluorescence intensities due to the respective blanks. The calculated values were obtained as the mean ± SEM of four different experiments conducted in duplicate. Statistical analysis was performed by a one-way analysis of variance (ANOVA) with a significance threshold set at p < 0.05.

[4] = tested on: SH-SY5Y human neuroblastoma cell line; experiment: Cell viability dose-response screening (MTT); format: cell-based; details: 24 h
Procedure: (§2) Cell viability was assessed using the colorimetric MTT (3-(4,5-dimethylthiazol-2-yl)-2,5-diphenyltetrazolium bromide) assay, as previously described.
(§3) The compounds’ solutions (4AY1-6, 4BY1-3, and 4CY1) were prepared in DMSO to create stock solutions at a concentration of 25 mM, which were then stored at −20 °C. A concentration range from 0.5 µM to 20 µM was screened to identify the highest non-toxic dose. The SH-SY5Y human neuroblastoma cell line (ATCC-CRL-2266) was grown in Dulbecco’s modified Eagle’s medium (DMEM) (Thermo Fisher Scientific-Gibco, Waltham, MA, USA) supplemented with 10% heat-inactivated fetal calf serum, 50 U/mL penicillin, and 50 µg/mL streptomycin at 37 °C in a 5% CO2 atmosphere. The cells were seeded at a density of 0.1 × 10^6 cells/mL (when 48-well plates were used) or 0.15 × 10^6 cells/mL (when 24-well plates were used) one day before the experiment commenced. Following the seeding, the cells were treated with the selected concentrations of compounds for 24 h. After treatment, the cells were washed with PBS and incubated with 150 µL (in 48-well plates) or 200 µL (in 24-well plates) of MTT (0.5 mg/mL) for 2 h at 37 °C with 5% CO2. During this incubation, cellular dehydrogenases converted MTT into formazan crystals, which were subsequently dissolved in 150 µL (in 48-well plates) or 200 µL (in 24-well plates) of 0.04 M HCl/isopropanol, and the absorbance was measured at 570 nm.

[5] = tested on: SH-SY5Y human neuroblastoma cell line; experiment: Protection against iron/ascorbate-induced toxicity (MTT); format: cell-based; details: 1 h pre-treatment at highest nontoxic concentration, then 24 h with Fe/Asc
Procedure: as §2, §3
To evaluate the compounds’ protective effects against toxicity induced by Aβ1–42 or iron/ascorbate, the cells were pre-treated with each compound for one hour before adding Aβ1–42 or iron/ascorbate, followed by an additional 24-h incubation. Aβ1–42 (Bachem, Torrance, CA, USA) was prepared in sterile water to create a 443 µM stock solution and was added to the cells at a final concentration of 1 µM. Ferrous sulfate and L-ascorbic acid (Sigma Chemical Co., St. Louis, MO, USA) were introduced into the medium at final concentrations of 5 mM and 2.5 mM, respectively. […]

[6] = dose given for the Aβ1–42 experiments
[7] = dose given for the iron/ascorbate experiments

T3 sequence (P05067 672-713): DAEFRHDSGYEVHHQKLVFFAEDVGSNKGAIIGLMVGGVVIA
T1 sequence (O42275 24-633): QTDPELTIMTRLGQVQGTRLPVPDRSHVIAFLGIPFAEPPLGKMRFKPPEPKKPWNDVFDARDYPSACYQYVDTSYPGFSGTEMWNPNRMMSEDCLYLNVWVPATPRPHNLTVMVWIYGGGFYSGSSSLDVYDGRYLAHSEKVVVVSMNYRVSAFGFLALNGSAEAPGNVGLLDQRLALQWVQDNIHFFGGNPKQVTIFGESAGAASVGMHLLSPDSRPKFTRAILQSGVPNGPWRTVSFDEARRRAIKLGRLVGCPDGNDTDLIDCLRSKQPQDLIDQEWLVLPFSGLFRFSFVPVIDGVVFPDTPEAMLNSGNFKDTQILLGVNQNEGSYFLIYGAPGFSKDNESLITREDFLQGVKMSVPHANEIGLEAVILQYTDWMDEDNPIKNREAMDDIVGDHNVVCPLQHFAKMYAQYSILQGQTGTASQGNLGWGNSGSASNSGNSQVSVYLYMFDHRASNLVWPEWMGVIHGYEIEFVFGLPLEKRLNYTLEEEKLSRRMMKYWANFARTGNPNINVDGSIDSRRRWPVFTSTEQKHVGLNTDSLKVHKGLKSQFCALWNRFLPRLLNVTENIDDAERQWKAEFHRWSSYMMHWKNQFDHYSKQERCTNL
T2 sequence (P81908 whole entry): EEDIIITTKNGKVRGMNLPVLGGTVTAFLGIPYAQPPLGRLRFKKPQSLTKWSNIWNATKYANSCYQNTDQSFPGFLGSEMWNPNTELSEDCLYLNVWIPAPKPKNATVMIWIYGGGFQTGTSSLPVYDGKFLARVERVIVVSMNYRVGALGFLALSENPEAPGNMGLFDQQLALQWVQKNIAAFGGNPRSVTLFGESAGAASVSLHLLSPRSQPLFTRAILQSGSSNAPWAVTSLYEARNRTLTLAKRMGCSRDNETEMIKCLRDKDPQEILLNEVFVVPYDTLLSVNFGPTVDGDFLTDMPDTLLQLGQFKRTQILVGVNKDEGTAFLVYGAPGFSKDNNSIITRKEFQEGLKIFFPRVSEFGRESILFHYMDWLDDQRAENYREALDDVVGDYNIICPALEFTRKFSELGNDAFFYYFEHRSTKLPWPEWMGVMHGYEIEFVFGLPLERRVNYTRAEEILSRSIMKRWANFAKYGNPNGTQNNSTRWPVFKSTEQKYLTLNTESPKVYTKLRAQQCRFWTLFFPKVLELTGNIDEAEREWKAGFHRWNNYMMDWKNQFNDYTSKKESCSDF

SMILES	% AA (radical-scavenging activity) [1] [%]	EC50 [1] [µM]	IC50 [2] [µM]	SI (selectivity index) [3]	IC50 [3] [µM]	inhibition at 40 µM (Aβ1–42) [%]	highest nontoxic concentration [4, 6] [µM]	highest nontoxic concentration [4, 7] [µM]	rescue of cell viability after iron/ascorbate treatment [5]	inhibition at 20 µM (Aβ1–42) [%]	highest nontoxic concentration [4] [µM]
CCN(C)C(=O)Oc1cccc(NC(=O)C2(C)CCc3c(C)c(O)c(C)c(C)c3O2)c1 (stereo not drawn) [4AY2, 3-(6-Hydroxy-2,5,7,8-tetramethylchromane-2-carboxamido)phenyl ethyl(methyl)carbamate]	95 ± 3	18.1 ± 0.4	69 ± 7	1.9	36 ± 3	45 ± 4	1	2.5	capable of rescuing the cell viability; also recorded: significantly improved cell viability		
CCN(C)C(=O)Oc1cccc(NC(=O)/C=C/C=C/c2ccc3c(c2)OCO3)c1 [4AY4, 3-((2E,4E)-5-(Benzo[d][1,3]dioxol-5-yl)penta-2,4-dienamido)phenyl ethyl(methyl)carbamate]	<50		14.51 ± 0.04	0.9	15.2 ± 0.4		1	2.5	capable of rescuing the cell viability; also recorded: significantly improved cell viability	23 ± 3	
CCN(C)C(=O)Oc1cccc(NC(=O)/C=C/C=C/c2ccc(O)c(O)c2)c1 [4AY6, 3-((2E,4E)-5-(3,4-Dihydroxyphenyl)penta-2,4-dienamido)phenyl ethyl(methyl)carbamate]	93.1 ± 0.8	28 ± 0.4	5 ± 1	0.9	5.7 ± 0.6	75 ± 7					1
CCN(C)C(=O)Oc1cccc(NC(=O)c2cc(OC)c(O)c(OC)c2)c1 [4AY1, 3-(4-Hydroxy-3,5-dimethoxybenzamido)phenyl ethyl(methyl)carbamate]	<50		> 200		31 ± 2	20 ± 2					10
Cc1c(C)c2c(c(C)c1O)CCC(C)(C(=O)O)O2 (stereo not drawn) [Trolox, 6-hydroxy-2,5,7,8-tetramethylchromane-2-carboxylic acid, reference compound]		13.8 ± 0.2									
CCN(C)C(=O)Oc1cccc(NC(=O)/C=C/c2ccc3c(c2)OCO3)c1 [4AY3, (E)-3-(3-(Benzo[d][1,3]dioxol-5-yl)acrylamido)phenyl ethyl(methyl)carbamate]	<50		50.5 ± 0.1	16.3	3.1 ± 0.4	45 ± 4					5
COc1cc(/C=C/C(=O)CC(=O)/C=C/c2ccc(O)c(OC)c2)ccc1O [Curcumin, reference compound]						77 ± 1					
COc1cc(C(=O)Nc2cccc(OC(=O)N(C)C)c2)cc(OC)c1O [4CY1, 3-(4-Hydroxy-3,5-dimethoxybenzamido)phenyl dimethylcarbamate]	<50		> 200		68 ± 7					31 ± 3	5
CCN(C)C(=O)Oc1cccc(NC(=O)/C=C/c2ccc(O)c(O)c2)c1 [4AY5, (E)-3-(3-(3,4-Dihydroxyphenyl)acrylamido)phenyl ethyl(methyl)carbamate]	96 ± 2	15.7 ± 0.4	110 ± 5	15.3	7.2 ± 0.3	82 ± 5					0.5
CCN(C)C(=O)Oc1cccc(CNC(=O)c2cc(OC)c(O)c(OC)c2)c1 [4BY1, 3-((4-Hydroxy-3,5-dimethoxybenzamido)methyl)phenyl ethyl(methyl)carbamate]	<50		> 200		75 ± 0.6	58 ± 6					15
CCN(C)C(=O)Oc1cccc(CNC(=O)/C=C/c2ccc3c(c2)OCO3)c1 [4BY3, (E)-3-((3-(Benzo[d][1,3]dioxol-5-yl)acrylamido)methyl)phenyl ethyl(methyl)carbamate]	<50		91 ± 6	101	0.9 ± 0.2	29 ± 3					1
